# Laboratory results from patent US11840686B2, “Modulation of prekallikrein (PKK) expression” (Ionis Pharmaceuticals, Inc., priority 2013, dated 2023).
# Strand notation (5' to 3'): a small letter for the sugar, then the base; units joined by * are phosphorothioate-linked, units joined directly phosphodiester-linked; [ ] holds rarer units or linkages, { } end groups; capitals alone tell only the bases. e = 2'-O-(2-methoxyethyl) (MOE); [5mC] = 5-methylcytosine; d = 2'-deoxy (DNA)
# Key:
# human PKK mRNA [1] = experiment: Antisense inhibition of human PKK mRNA in HepaRG cells, 3,000 nM (Example 1); type: cell-based; conditions: relative to untreated control cells
# Outline: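 HepaRG cells, 20,000 per well, were electroporated with 3,000 nM 5-10-5 MOE gapmer (phosphorothioate, 5-methylcytosine). After about 24 h, PKK mRNA was measured by qRT-PCR with primer probe set RTS3454 and normalised to RIBOGREEN total RNA. Values are percent inhibition versus untreated cells.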
# human PKK mRNA [2] = experiment: Dose-dependent antisense inhibition of human PKK in HepaRG cells, 0.12-10.00 uM (Example 4); type: cell-based; conditions: electroporation, ~16 h; for percent inhibition of PKK at 0.12 μM: Table 32, 0.12 μM; for percent inhibition of PKK at 0.37 μM: Table 32, 0.37 μM; for percent inhibition of PKK at 1.11 μM: Table 32, 1.11 μM; for percent inhibition of PKK at 3.33 μM: Table 32, 3.33 μM; for percent inhibition of PKK at 10.00 μM: Table 32, 10.00 μM; for IC50: Table 32, PKK mRNA
# Method: Cells were plated at a density of 20,000 cells per well and transfected using electroporation with 0.12 μM, 0.37 μM, 1.11 μM, 3.33 μM, and 10.00 μM concentrations of antisense oligonucleotide. After a treatment period of approximately 16 hours, RNA was isolated from the cells and PKK mRNA levels were measured by quantitative real-time PCR. Human PKK primer probe set RTS3454 was used to measure mRNA levels. PKK mRNA levels were adjusted according to total RNA content, as measured by RIBOGREEN®. The antisense oligonucleotides were tested in a series of experiments that had similar culture conditions. Results are presented as percent inhibition of PKK, relative to untreated control cells.
# The half maximal inhibitory concentration (IC50) of each oligonucleotide is also presented.
# [3] = Table 1, PKK mRNA, HepaRG cells, 3,000 nM, electroporation, ~24 h
# [4] = Table 4, HepaRG cells, electroporation with 3,000 nM antisense oligonucleotide, approx. 24 hours, PKK mRNA by RT-PCR (RTS3454)
Substance,"% inhibition (human PKK mRNA [1]; Table 2, PKK mRNA, HepaRG cells, 3,000 nM, electroporation, ~24 h) [%]",percent inhibition of PKK at 0.12 μM (human PKK mRNA [2]) [%],percent inhibition of PKK at 0.37 μM (human PKK mRNA [2]) [%],percent inhibition of PKK at 1.11 μM (human PKK mRNA [2]) [%],percent inhibition of PKK at 3.33 μM (human PKK mRNA [2]) [%],percent inhibition of PKK at 10.00 μM (human PKK mRNA [2]) [%],IC50 (human PKK mRNA [2]) [nM],% inhibition (human PKK mRNA [1]; [3]) [%],% inhibition (human PKK mRNA [1]; [4]) [%]
486847 (antisense eA*eG*eG*e[5mC]*eA*dT*dA*dT*dT*dG*dG*dT*dT*dT*dT*eT*eG*eG*eA*eA) [compound 486847],78,0,34,48,71,87,1100,–,–
530933 (antisense eT*eG*eG*eA*eG*dG*dT*dG*dA*dG*dT*d[5mC]*dT*d[5mC]*dT*eT*eG*eT*e[5mC]*eA) [compound 530933],–,15,13,42,67,66,1700,76,–
530959 (antisense eT*e[5mC]*eA*eA*e[5mC]*dA*d[5mC]*dT*dG*d[5mC]*dT*dA*dA*d[5mC]*d[5mC]*eT*eT*eA*eG*eA) [compound 530959],–,12,27,53,80,94,900,60,–
530965 (antisense eG*eG*e[5mC]*eA*e[5mC]*dA*dG*dG*dG*d[5mC]*dT*dT*d[5mC]*dA*dG*eT*eG*eA*eG*eA) [compound 530965],–,8,5,63,83,91,800,73,–
530967 (antisense e[5mC]*eA*eA*e[5mC]*e[5mC]*dA*dA*dT*dT*dT*d[5mC]*dT*dG*dA*dA*eA*eG*eG*eG*e[5mC]) [compound 530967],–,30,36,48,82,91,700,69,–
530970 (antisense eT*eT*eG*eG*eT*dG*dT*dG*d[5mC]*d[5mC]*dA*d[5mC]*dT*dT*dT*e[5mC]*eA*eG*eA*eT) [compound 530970],–,1,0,66,76,84,1000,74,–
530971 (antisense eG*eG*eA*eA*e[5mC]*dT*dT*dG*dG*dT*dG*dT*dG*d[5mC]*d[5mC]*eA*e[5mC]*eT*eT*eT) [compound 530971],–,12,40,52,66,70,1300,85,–
530988 (eT*e[5mC]*e[5mC]*eA*eA*dA*dG*dT*d[5mC]*dA*dA*d[5mC]*dT*d[5mC]*d[5mC]*e[5mC]*eG*eG*eG*eT; antisense) [compound 530988],–,0,25,54,86,78,900,76,–
530992 (eG*eT*e[5mC]*eA*e[5mC]*dA*dT*dT*d[5mC]*dA*dA*dT*dT*d[5mC]*dT*eT*e[5mC]*eT*e[5mC]*e[5mC]; antisense) [compound 530992],–,0,50,63,83,80,700,70,–
531002 (eG*eA*eG*e[5mC]*eT*d[5mC]*d[5mC]*d[5mC]*dT*dT*dG*dT*dG*dT*d[5mC]*e[5mC]*e[5mC]*eA*eT*eA; antisense) [compound 531002],–,6,28,58,82,86,900,85,–
531216 (eA*eA*eA*e[5mC]*eA*d[5mC]*dA*dG*dG*dA*dA*dT*dT*dT*dG*e[5mC]*eA*eG*eA*e[5mC]; antisense) [compound 531216],–,–,–,–,–,–,–,–,33
531217 (eG*eT*eG*eG*eA*dA*dT*dA*dA*dA*d[5mC]*d[5mC]*dA*dT*dA*eA*eT*e[5mC]*eT*eA; antisense) [compound 531217],–,–,–,–,–,–,–,–,47
531218 (eG*eA*eT*eA*eA*dT*dT*d[5mC]*dT*dT*dT*dT*d[5mC]*dA*d[5mC]*eA*eG*eA*e[5mC]*eA; antisense) [compound 531218],–,–,–,–,–,–,–,–,72
531219 (e[5mC]*eT*eT*e[5mC]*eT*d[5mC]*dT*dA*dT*d[5mC]*dT*d[5mC]*d[5mC]*d[5mC]*dA*eG*eT*eG*eT*eT; antisense) [compound 531219],–,–,–,–,–,–,–,–,61
531220 (e[5mC]*eA*eA*eT*eA*d[5mC]*dA*dG*dG*dT*dA*dA*dA*dT*dT*eT*e[5mC]*eA*e[5mC]*eG; antisense) [compound 531220],–,–,–,–,–,–,–,–,56
531221 (eA*eA*eG*eG*eG*dA*dT*dT*dT*dA*dA*dA*dA*dT*dT*eT*eT*eT*eA*eT; antisense) [compound 531221],–,–,–,–,–,–,–,–,0
531222 (eG*eG*e[5mC]*eA*eA*dG*d[5mC]*dT*dG*dT*dA*d[5mC]*dA*dA*dG*eA*eA*eA*eA*eA; antisense) [compound 531222],–,–,–,–,–,–,–,–,19
531223 (eT*eG*eT*eA*e[5mC]*dT*d[5mC]*dA*d[5mC]*d[5mC]*dG*dG*dT*dA*d[5mC]*eT*e[5mC]*eT*eG*e[5mC]; antisense) [compound 531223],–,–,–,–,–,–,–,–,58
531224 (eA*eA*eG*eA*eG*dA*dA*dT*dG*d[5mC]*dT*d[5mC]*dA*dG*dA*eA*eA*eT*eG*eG; antisense) [compound 531224],–,–,–,–,–,–,–,–,25
531225 (eA*e[5mC]*eA*e[5mC]*eT*dT*dG*dT*dA*d[5mC]*d[5mC]*d[5mC]*d[5mC]*dA*dT*eA*e[5mC]*eA*eT*e[5mC]; antisense) [compound 531225],–,–,–,–,–,–,–,–,45
531226 (eG*eA*e[5mC]*eA*eG*dT*dA*dG*dA*dG*dA*d[5mC]*dT*dG*dG*eG*eA*eA*eG*eG; antisense) [compound 531226],–,–,–,–,–,–,–,–,12
531227 (eT*eA*e[5mC]*e[5mC]*eA*dA*dT*dT*dT*d[5mC]*dT*dG*dA*dA*dA*eG*eG*eG*e[5mC]*eA; antisense) [compound 531227],–,–,–,–,–,–,–,–,72
531228 (e[5mC]*eA*eG*eA*eG*dT*dA*dA*dA*d[5mC]*dT*d[5mC]*d[5mC]*d[5mC]*d[5mC]*eA*eT*e[5mC]*eT*e[5mC]; antisense) [compound 531228],–,–,–,–,–,–,–,–,33
531229 (e[5mC]*eT*eT*e[5mC]*eA*dA*dA*dG*d[5mC]*d[5mC]*dA*dG*d[5mC]*dA*dG*eT*eG*eT*eA*eA; antisense) [compound 531229],–,–,–,–,–,–,–,–,69
531230 (e[5mC]*eT*eT*eA*e[5mC]*dT*dG*dG*dG*d[5mC]*dT*dA*dA*dA*dA*eT*e[5mC]*eA*eA*eG; antisense) [compound 531230],–,–,–,–,–,–,–,–,46
531237 (eG*eT*eG*eG*eA*dA*dT*dG*dT*d[5mC]*dA*dT*dG*dG*d[5mC]*eA*eA*eT*eT*eT; antisense) [compound 531237],–,–,–,–,–,–,–,–,56
